Measured values as given in patent US9567586B2, “EpCAM aptamer for detection of cancer stem cells” (DEAKIN UNIVERSITY, priority 2012, dated 2017).
Where two headings read alike, the source gives them in different places.

Legend:
[1] = biological target: T1, native EpCAM expressed on the cell surface (Homo sapiens, UniProt P16422); assay: Binding affinities of EpCAM aptamers by flow cytometry; settings: read-out: KD (±SEM)
T1 construct: host or cells: T47D, MCF7, MDA-MB-231, HT-29 (EpCAM-positive); U118MG (EpCAM-negative control)
T1 sequence (P16422 24-314): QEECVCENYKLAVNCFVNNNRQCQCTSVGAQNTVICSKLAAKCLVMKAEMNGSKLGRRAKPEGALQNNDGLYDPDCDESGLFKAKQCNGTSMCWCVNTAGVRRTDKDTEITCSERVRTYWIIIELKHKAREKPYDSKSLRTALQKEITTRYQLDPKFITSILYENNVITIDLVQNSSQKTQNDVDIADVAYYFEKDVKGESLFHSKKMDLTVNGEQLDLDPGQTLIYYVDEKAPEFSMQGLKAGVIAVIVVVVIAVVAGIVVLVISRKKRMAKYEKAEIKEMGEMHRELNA
Experimental: (§1) Cells were harvested at 80% confluence with trypsin digestion and resuspended in washing buffer (DPBS with 5 mM MgCl2) and enumerated. Following centrifugation (1000×g for 5 min), the cell pellet was resuspended in assay buffer (DPBS supplemented with 5 mM MgCl2, 0.1 mg/ml tRNA, 0.1 mg/ml salmon sperm DNA, 0.2% [w/v] sodium azide, and 5% FCS) and diluted to 1×10^6/mL. The blocking step was carried out at 4′C. The binding of the aptamers was carried out at 37′C for 30 min or 4′C for 1 h, with the final concentration of magnesium chloride being 2.5 mM in all binding assays.
(§2) The equilibrium dissociation constant (K′d) of successful 2′-fluoropyrimidine RNA aptamer species to native EpCAM expressed on the cell surface was determined using flow cytometry with EpCAM-positive and -negative cell lines and a negative control (2-O-methyl-pyrimidine) aptamer (5′-DY647-mGCmGACUmGmGUUmACCCmGmGUCmGdT-3′) (SEQ ID NO:13). Kato III or U118MG cells (5×10^5) were first incubated with assay buffer followed by two washes with binding buffer prior to incubation with serial concentrations (approximately 10-fold above and below the apparent K′d) of FITC-labelled aptamer in a 100 μL assay buffer for 1 h on ice. The cells were washed three times, resuspended in 150 μL assay buffer containing 2.5 mM MgCl2 and subjected to flow cytometric analyses. The FITC-labelled unselected library was used as another negative control. The mean fluorescence intensity (MFI) of the unselected library was subtracted from that of the aptamer-target cell to generate the MFI of specific binding. The K′d for each aptamer was determined by Scatchard analysis according to the equation: [Bound aptamer]/[aptamer]=−(1/KD)×[bound aptamer]+([T]tol/KD) where [T]tot represents the total target concentration. Design and Generation of EpCAM Aptamer-siRNA Chimera
(§3) The binding affinities of both aptamers have been characterised against all five cell lines used in this study by flow cytometry, and the results are shown in Table 1.

[2] = tested on: native EpCAM expressed on the cell surface; assay: as above; set-up: species or system human; settings: U118MG cells (EpCAM negative); read-out: KD (±SEM)
Experimental: as §1, §2, §3

[3] = tested on: HEK293T sphere that does not express EpCAM; assay: Penetration of HEK293T sphere (specificity); assay type: cell-based, human; settings: 4 h incubation, further 24 h culture
Experimental: After four hour incubation with EpCAM antibody or aptamer 23 separately, the tumor spheres were washed twice with PBS and were cultured for a further 24 h followed by confocal microscopy. Panel A: fluorescence image for aptamer 23. Panel B: phase contrast for tumor sphere. Panel C: fluorescence image for anti-EpCAM antibody. Panel D: phase contrast image for tumour sphere.
To study the ability of EpCAM aptamer or antibody to penetrate tumors, the inventors used a three-dimensional in vitro tumor sphere model. […] After incubating for the indicated time, the spheres were washed twice with PBS and imaged via fluorescence confocal microscopy. A phase contrast image of the sphere was also taken for each sample. […] A retention study was performed whereby the tumour spheres were incubated with EpCAM antibody, aptamer-23 or control aptamer for 4 h, after washing with PBS twice, the tumor spheres were incubated with the culture medium for a further 24 h followed by confocal microscopy.

Substance	Kd ([1]; HT29 cells) [µM]	Kd ([1]; MCF7 cells) [µM]	Kd ([1]; MDA-MB-231 cells) [µM]	Kd ([1]; T47D cells) [µM]	Kd [2] [µM]	binding to HEK293T sphere [3]
5′-ACGUAUCCCUUUUCGCGUA-3′ (RNA aptamer, fluorescent dye conjugate used, modifications not given here, further chemistry not given here) [compound 23]	0.037 ± 0.0236	0.0637 ± 0.0404	0.0867 ± 0.0685	0.0412 ± 0.0292	> 1	minimal binding
5′-DY647-mGCmGACUmGmGUUmACCCmGmGUCmGdT-3′ (GCGACUGGUUACCCGGUCGN; 5' DY647, 2'-O-methyl, 3' dT, further chemistry not given here) [Control]	0.837 ± 0.265	> 1	> 1	> 1	> 1	–
